Columns and labels:
Assay type in all cases: functional
[1] = Antiosteoclast activity in ICR mouse osteoblast like cells co-cultured with bone marrow cells assessed as effect on 1-alpha,25(OH)2D3-induced TRAP-positive osteoclast like multinucleated cell formation at 20 uM after 6 days medium replaced every 2 days relative to control
[2] = Antiosteoclast activity in ICR mouse osteoblast like cells co-cultured with bone marrow cells assessed as effect on 1-alpha,25(OH)2D3-induced TRAP-positive osteoclast like multinucleated cell formation at 2 uM after 6 days medium replaced every 2 days relative to control
[3] = Antiosteoclast activity in ICR mouse osteoblast like cells co-cultured with bone marrow cells assessed as recovery of 1-alpha,25(OH)2D3-induced TRAP-positive osteoclast like multinucleated cell formation at 20 uM after 6 days drug removal after 2 days relative to control
[4] = Antiosteoclast activity in ICR mouse osteoblast like cells co-cultured with bone marrow cells assessed as recovery of 1-alpha,25(OH)2D3-induced TRAP-positive osteoclast like multinucleated cell formation at 2 uM after 6 days drug removal after 2 days relative to control
[5] = Antiosteoclast activity in ICR mouse osteoblast like cells co-cultured with bone marrow cells assessed as effect on 1-alpha,25(OH)2D3-induced TRAP-positive osteoclast like multinucleated cell formation at 200 uM after 6 days medium replaced every 2 days relative to control

Row | Structure (SMILES) | Activity [1] | Activity [2] | Activity [3] | Activity [4] | Activity [5]
1 | COC(=O)[C@H](Cc1ccccc1)NC(=O)[C@]12CCC(C)(C)C[C@H]1C1=CC[C@@H]3[C@@]4(C)Cc5nccnc5C(C)(C)[C@@H]4CC[C@@]3(C)[C@]1(C)CC2 | 29.6% | 82.8% | 89.5% | 95.6% | 
2 | COC(=O)[C@H](CC(C)C)NC(=O)[C@]12CCC(C)(C)C[C@H]1C1=CC[C@@H]3[C@@]4(C)Cc5nc6ccccc6nc5C(C)(C)[C@@H]4CC[C@@]3(C)[C@]1(C)CC2 | 14% | 55.1% | 97.3% |  | 91.2%
3 | NCCCC(O)(P(=O)([O-])O)P(=O)(O)O.[Na+] [ALENDRONATE SODIUM] | 0% | 3.5% |  |  | 47.5%
4 | CC1(C)CC[C@]2(C(=O)O)CC[C@]3(C)C(=CC[C@@H]4[C@@]5(C)CC[C@H](O)C(C)(C)[C@@H]5CC[C@]43C)[C@@H]2C1 [OLEANOLIC_ACID] | 19.4% | 89.5% | 98% |  | 97.5%
5 | CC[C@H](C)[C@H](NC(=O)[C@]12CCC(C)(C)C[C@H]1C1=CC[C@@H]3[C@@]4(C)Cc5nccnc5C(C)(C)[C@@H]4CC[C@@]3(C)[C@]1(C)CC2)C(=O)OC | 0.7% | 0.7% |  | 96.2% | 101%
6 | CC[C@H](C)[C@H](NC(=O)[C@]12CCC(C)(C)C[C@H]1C1=CC[C@@H]3[C@@]4(C)Cc5nc6ccccc6nc5C(C)(C)[C@@H]4CC[C@@]3(C)[C@]1(C)CC2)C(=O)O | 30.6% | 58.7% | 94.7% |  | 95%
7 | COC(=O)[C@H](Cc1ccccc1)NC(=O)[C@]12CCC(C)(C)C[C@H]1C1=CC[C@@H]3[C@@]4(C)Cc5nc6ccccc6nc5C(C)(C)[C@@H]4CC[C@@]3(C)[C@]1(C)CC2 | 34.2% | 53.6% | 93.5% |  | 93%
8 | COC(=O)[C@H](C)NC(=O)[C@]12CCC(C)(C)C[C@H]1C1=CC[C@@H]3[C@@]4(C)Cc5nc6ccccc6nc5C(C)(C)[C@@H]4CC[C@@]3(C)[C@]1(C)CC2 | 31.2% | 25.7% | 97.7% |  | 77%
9 | C[C@H](NC(=O)[C@]12CCC(C)(C)C[C@H]1C1=CC[C@@H]3[C@@]4(C)Cc5c([nH]c6ccc(Cl)cc56)C(C)(C)[C@@H]4CC[C@@]3(C)[C@]1(C)CC2)C(=O)O | 0% | 1.4% | 0% | 93.4% | 98.3%
10 | COC(=O)[C@@H](NC(=O)[C@]12CCC(C)(C)C[C@H]1C1=CC[C@@H]3[C@@]4(C)Cc5nc6ccccc6nc5C(C)(C)[C@@H]4CC[C@@]3(C)[C@]1(C)CC2)C(C)C | 36.3% | 37.1% | 94.6% |  | 93%
11 | CC(C)C[C@H](NC(=O)[C@]12CCC(C)(C)C[C@H]1C1=CC[C@@H]3[C@@]4(C)Cc5c([nH]c6ccc(Cl)cc56)C(C)(C)[C@@H]4CC[C@@]3(C)[C@]1(C)CC2)C(=O)O | 0% | 71.6% | 0% |  | 
12 | COC(=O)[C@H](Cc1ccccc1)NC(=O)[C@]12CCC(C)(C)C[C@H]1C1=CC[C@@H]3[C@@]4(C)Cc5c([nH]c6ccc(Cl)cc56)C(C)(C)[C@@H]4CC[C@@]3(C)[C@]1(C)CC2 | 77.4% |  | 70.7% | 95.2% | 
13 | CC1(C)CC[C@]2(C(=O)NCC(=O)O)CC[C@]3(C)C(=CC[C@@H]4[C@@]5(C)Cc6c([nH]c7ccc(Cl)cc67)C(C)(C)[C@@H]5CC[C@]43C)[C@@H]2C1 | 0% | 74.2% | 0% |  | 
14 | CC(C)C[C@H](NC(=O)[C@]12CCC(C)(C)C[C@H]1C1=CC[C@@H]3[C@@]4(C)Cc5c([nH]c6ccccc56)C(C)(C)[C@@H]4CC[C@@]3(C)[C@]1(C)CC2)C(=O)O | 0% | 98.2% | 80.5% |  | 
15 | COC(=O)[C@H](CC(C)C)NC(=O)[C@]12CCC(C)(C)C[C@H]1C1=CC[C@@H]3[C@@]4(C)Cc5nccnc5C(C)(C)[C@@H]4CC[C@@]3(C)[C@]1(C)CC2 | 2.8% | 1.7% |  | 95.7% | 96.4%
16 | COC(=O)CNC(=O)[C@]12CCC(C)(C)C[C@H]1C1=CC[C@@H]3[C@@]4(C)Cc5nc6ccccc6nc5C(C)(C)[C@@H]4CC[C@@]3(C)[C@]1(C)CC2 | 20.7% | 31.9% | 94.3% |  | 34.1%
17 | CC1(C)CC[C@]2(C(=O)O)CC[C@]3(C)C(=CC[C@@H]4[C@@]5(C)Cc6c([nH]c7ccc([N+](=O)[O-])cc67)C(C)(C)[C@@H]5CC[C@]43C)[C@@H]2C1 | 0% | 83% | 38.6% |  | 
18 | CC(C)[C@H](NC(=O)[C@]12CCC(C)(C)C[C@H]1C1=CC[C@@H]3[C@@]4(C)Cc5c([nH]c6ccc(Cl)cc56)C(C)(C)[C@@H]4CC[C@@]3(C)[C@]1(C)CC2)C(=O)O | 0% | 80% | 0% |  | 
19 | CC(C)C[C@H](NC(=O)[C@]12CCC(C)(C)C[C@H]1C1=CC[C@@H]3[C@@]4(C)Cc5nccnc5C(C)(C)[C@@H]4CC[C@@]3(C)[C@]1(C)CC2)C(=O)O | 44.8% | 21.2% |  | 93.9% | 100.2%
20 | COC(=O)CNC(=O)[C@]12CCC(C)(C)C[C@H]1C1=CC[C@@H]3[C@@]4(C)Cc5c([nH]c6ccccc56)C(C)(C)[C@@H]4CC[C@@]3(C)[C@]1(C)CC2 | 0% | 32.3% | 82.9% | 96.1% | 86.3%
21 | COC(=O)[C@H](C)NC(=O)[C@]12CCC(C)(C)C[C@H]1C1=CC[C@@H]3[C@@]4(C)Cc5nccnc5C(C)(C)[C@@H]4CC[C@@]3(C)[C@]1(C)CC2 | 3.4% | 3.8% |  | 96.1% | 93.7%
22 | CC1(C)CC[C@]2(C(=O)O)CC[C@]3(C)C(=CC[C@@H]4[C@@]5(C)Cc6nccnc6C(C)(C)[C@@H]5CC[C@]43C)[C@@H]2C1 | 1.8% | 16.4% | 93.2% |  | 97.6%
23 | CC1(C)CC[C@]2(C(=O)O)CC[C@]3(C)C(=CC[C@@H]4[C@@]5(C)Cc6nc(-c7ccccc7)c(-c7ccccc7)nc6C(C)(C)[C@@H]5CC[C@]43C)[C@@H]2C1 | 28.1% | 76.2% | 94.5% |  | 
24 | CC(C)C[C@H](NC(=O)[C@]12CCC(C)(C)C[C@H]1C1=CC[C@@H]3[C@@]4(C)Cc5nc6ccccc6nc5C(C)(C)[C@@H]4CC[C@@]3(C)[C@]1(C)CC2)C(=O)O | 45.9% | 58.3% | 92.3% |  | 86.3%

Source: ChEMBL document CHEMBL1152890, “Synthesis and evaluation of a novel series of heterocyclic oleanolic acid derivatives with anti-osteoclast formation activity” (Eur J Med Chem, 2009)
